Data as given in patent publication US20100143993A1, “PROCESS FOR FERMENTIVE PREPARATIONFOR ALCOLHOLS AND RECOVERY OF PRODUCT” (E.I. DU PONT DE NEMOURS AND COMPANY, priority 2008, published 2010).
“And” between values parts separate entries of the source, which are not always exact repeats. Equal values may be shown once.

Experiments:
[1] = test system: Lactobacillus zeae (ATCC 15820); experiment: Glucose Uptake Index of Lactobacillus zeae culture with ionic liquid; assay type: cell-based; conditions: 5% (v/v) of the ionic liquid phase, MRS medium, 30° C., 16 hours after addition
Experimental: This media was made per bottle instructions using sterilized water, and was then again filter sterilized before use. The test tubes were incubated at 30° C. at 175 rpm in an Inova Incubator (Karlsbad, Sweden). After 24 hours, the test tubes were removed and stored at 4° C.
A portion (50 μL) of each stock culture prepared as above was inoculated into separate 15 mL sterile polypropylene culture tubes containing fresh MRS medium (3 mL). These tubes were incubated for four hours at 30° C. at 175 rpm. After four hours, one of these culture tubes was inoculated with 150 μL (5% v/v) of each of the ionic liquids as listed in Table 1 below. […] Each tube that was inoculated with an ionic liquid was also paired with a tube that received no ionic liquid and was used as a control.
All culture tubes were then incubated again under the same conditions for another 16 hours. After 16 hours, the culture tubes were stored at −80° C. Analytical samples were taken from each culture tube by thawing the samples and spinning them at 28,000 rpm and 20° C. for ten minutes in a Sorvall Instruments RC3C (Newtown Conn.) centrifuge. One milliliter of supernatant was removed from each tube and was subjected to high performance liquid chromatography (HPLC) analysis using an Agilent (Palo Alto Calif.) HPLC 1100 with a BioRad Aminex 87-H using 0.008 N sulfuric acid with both diode array and refractive index detection, and an Agilent HPLC 1100 with a Shodex OH-pak column using 0.01 N sulfuric acid. Data analysis was performed using the Agilent Chemstation software and Microsoft Excel.
The glucose uptake index was calculated by taking the total glucose consumed in a fermentation sample, whether or not the sample contained an ionic liquid, and dividing it by the total initial glucose present in the broth at the start of fermentation.

[2] = test system: Lactobacillus fermentum (ATCC 14931); experiment: Glucose Uptake Index of Lactobacillus fermentum culture with ionic liquid; assay type: cell-based; conditions: 5% (v/v) of the ionic liquid phase, MRS medium, 30° C., 16 hours after addition
[3] = Extraction of ethanol from an aqueous solution by ionic liquid; conditions: for Ethanol Remaining in Solution: aqueous solution about 31 g/L ethanol; for Ethanol Remaining in Solution / Ethanol Extracted: 5 vol % ionic liquid; for Ethanol Remaining in Solution / Ethanol: overnight equilibration, HPLC; for Ethanol: ethanol concentration in aqueous solution (about 31 g/L at start) after mixing with 5 vol % ionic liquid; for Ethanol Extracted: percentage relative to control without ionic liquid (Example 31)
[4] = Extraction of isobutanol from an aqueous solution by ionic liquid; conditions: for Isobutanol Remaining in Solution: aqueous solution about 31 g/L isobutanol; for Isobutanol Remaining in Solution / Isobutanol Extracted: 5 vol % ionic liquid; for Isobutanol Remaining in Solution / Isobutanol: overnight equilibration, HPLC; for Isobutanol: isobutanol concentration in aqueous solution (about 31 g/L at start) after mixing with 5 vol % ionic liquid; for Isobutanol Extracted: percentage relative to control without ionic liquid (Example 31)
Experimental: Ethanol and isobutanol concentration in the solution was measured using HPLC as described above following thorough mixing and overnight equilibration of the contents of the vial.

Compound | GUI of Sample (Glucose Utilization Index) [1] | GUI of Sample (Glucose Utilization Index) [2] | Ethanol Remaining in Solution [3] [g/L] | Ethanol [3] [mM] | Ethanol Extracted [3] [%] | Isobutanol Remaining in Solution [4] [g/L] | Isobutanol [4] [mM] | Isobutanol Extracted [4] [%]
1-butyl-3-methylimidazolium 1,1,2,3,3,3-hexafluoropropanesulfonate [[BMIM] [HFPS]] | 21.2 and 34.3 | 8.0 and 11.5 | – | – | – | – | – | –
1-butyl-3-methylimidazolium 1,1,2-trifluoro-2-(perfluoroethoxy)ethanesulfonate [[BMIM] [TPES]] | 5.06 | 7.21 | – | – | – | – | – | –
1-butyl-3-methylimidazolium 1,1,2-trifluoro-2-(trifluoromethoxy)ethanesulfonate [[BMIM] [TTES]] | 58.8 | 16.2 | – | – | – | – | – | –
1-butyl-3-methylimidazolium 2-(1,2,2,2-tetrafluoroethoxy)-1,1,2,2-tetrafluoroethanesulfonate [[BMIM] [FS]] | 54.4 | 24.0 | – | – | – | – | – | –
1-butyl-3-methylimidazolium bis(trifluoromethylsulfonyl)imide [[BMIM] [Tf2N]] | 64.4 | 26.8 | – | – | – | – | – | –
1-butyl-3-methylpyrrolidinium bis(trifluoromethylsulfonyl)imide [[BMP] [Tf2N]] | 49.8 | 0.96 | 31.1 | 676 | 1.17 | 29.0 | 391 | 6.33
1-ethyl-3-methylimidazolium bis(pentafluoroethylsulfonyl)imide [[EMIM] [BEI]] | 36.0 | 25.5 | – | – | – | – | – | –
1-ethyl-3-methylimidazolium bis(trifluoromethylsulfonyl)imide [[EMIM] [Tf2N]] | 51.2 | 54.5 | 30.9 | 670 | 1.96 | 28.8 | 389 | 7.11
1-hexyl-3-methylimidazolium bis(trifluoromethylsulfonyl)imide [[HMIM] [Tf2N]] | 66.2 | 19.5 | 31.3 | 678 | 0.76 | 28.8 | 388 | 7.28
3-methyl-1-propylpyridinium bis(trifluoromethylsulfonyl)imide [[PMPy] [Tf2N]] | 63.5 | 26.1 | – | – | – | – | – | –
CCCCn1cc[n+](C)c1.F[B-](F)(F)F [[BMIM] [BF4], 1-butyl-3-methylimidazolium tetrafluoroborate] | 11.8 | – | – | – | – | – | – | –
CCCCn1cc[n+](C)c1.F[P-](F)(F)(F)(F)F [[BMIM] [PF6], 1-butyl-3-methylimidazolium hexafluorophosphate] | 55.4 | – | – | – | – | – | – | –
CCCCCCn1cc[n+](C)c1.FC(F)(F)C(F)(F)[P-](F)(F)(F)(C(F)(F)C(F)(F)F)C(F)(F)C(F)(F)F [[HMIM] [FAP], 1-hexyl-3-methylimidazolium tris(pentafluoroethyl)trifluorophosphate] | 51.9 | 84.7 | – | 680 | 0.45 | – | 404 | 3.14
tetradecyl(tri-n-hexyl)phosphonium 1,1,2-trifluoro-2-(perfluoroethoxy)ethanesulfonate [[6,6,6,14-P] [TPES]] | 62.8 | 92.8 | – | – | – | – | – | –
